Results from patent publication US20260028326A1, “COMPOUND BASED ON ISOINDOLINE-SUBSTITUTED GLUTARIMIDE BACKBONE AND USE THEREOF” (GLUETACS THERAPEUTICS (SHANGHAI) CO., LTD., priority 2022, published 2026).
pIC50: −log10 of the molar value. “And” between values parts separate entries of the source, which are not always exact repeats. Identical values can stand only once.

How the values were obtained:
[1] = biological target: human Cereblon WT GST-tagged protein (Homo sapiens (Human), UniProt Q96SW2); test: CRBN-binding affinity, HTRF (CEREBLON BINDING kit)
Summary of the method: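 HTRF competition readout: compounds compete with a thalidomide-Re conjugate for GST-tagged wild-type human CRBN detected via Eu-labelled anti-GST antibody. Inhibition rate derived relative to protein-free blank wells.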

IKZF1 protein = IKZF1 protein (Homo sapiens (Human), UniProt Q13422+Q96SW2); test: Western-blot assay of substrate protein degradation in hPBMC, IKZF1; assay type: cell-based; conditions: hPBMC cells, compound 500 nM, 24 hours, Western blot
IKZF3 protein = IKZF3 protein (Homo sapiens (Human), UniProt Q96SW2+Q9UKT9); test: Western-blot assay of substrate protein degradation in hPBMC, IKZF3; assay type: cell-based; conditions: hPBMC cells, compound 500 nM, 24 hours, Western blot
GSPT1 protein = GSPT1 protein (Homo sapiens (Human), UniProt P15170+Q96SW2); test: Western-blot assay of substrate protein degradation in hPBMC, GSPT1; assay type: cell-based; conditions: hPBMC cells, compound 500 nM, 24 hours, Western blot
GSPT1 protein, sequence (P15170 whole entry): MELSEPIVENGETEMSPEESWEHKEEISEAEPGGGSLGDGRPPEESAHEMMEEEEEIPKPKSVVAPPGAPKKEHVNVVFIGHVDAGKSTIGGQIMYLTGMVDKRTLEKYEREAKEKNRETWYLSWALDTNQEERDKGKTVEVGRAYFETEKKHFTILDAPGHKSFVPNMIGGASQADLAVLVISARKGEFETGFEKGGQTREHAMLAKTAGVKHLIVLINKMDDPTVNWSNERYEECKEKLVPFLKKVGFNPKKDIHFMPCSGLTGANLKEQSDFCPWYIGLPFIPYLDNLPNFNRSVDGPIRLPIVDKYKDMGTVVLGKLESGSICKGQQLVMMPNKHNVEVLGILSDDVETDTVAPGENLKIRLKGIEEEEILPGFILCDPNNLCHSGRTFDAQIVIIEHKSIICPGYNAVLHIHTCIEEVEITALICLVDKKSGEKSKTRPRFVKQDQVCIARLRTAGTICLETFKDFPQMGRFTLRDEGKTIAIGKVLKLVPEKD
GSPT1 protein, sequence (Q96SW2 whole entry): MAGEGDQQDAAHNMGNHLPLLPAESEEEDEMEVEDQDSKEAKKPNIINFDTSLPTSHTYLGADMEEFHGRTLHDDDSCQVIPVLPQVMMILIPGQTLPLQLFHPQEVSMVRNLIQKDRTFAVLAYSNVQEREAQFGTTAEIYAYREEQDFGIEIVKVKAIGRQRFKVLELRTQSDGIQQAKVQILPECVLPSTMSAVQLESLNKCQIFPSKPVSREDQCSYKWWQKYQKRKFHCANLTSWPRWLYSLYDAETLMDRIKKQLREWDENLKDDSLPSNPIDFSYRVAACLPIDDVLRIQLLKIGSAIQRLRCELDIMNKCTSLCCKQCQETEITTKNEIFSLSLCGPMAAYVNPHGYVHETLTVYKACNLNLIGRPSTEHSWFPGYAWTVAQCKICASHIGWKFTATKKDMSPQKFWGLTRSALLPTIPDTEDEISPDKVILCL
GSPT1 protein, sequence (Q16531 whole entry partner): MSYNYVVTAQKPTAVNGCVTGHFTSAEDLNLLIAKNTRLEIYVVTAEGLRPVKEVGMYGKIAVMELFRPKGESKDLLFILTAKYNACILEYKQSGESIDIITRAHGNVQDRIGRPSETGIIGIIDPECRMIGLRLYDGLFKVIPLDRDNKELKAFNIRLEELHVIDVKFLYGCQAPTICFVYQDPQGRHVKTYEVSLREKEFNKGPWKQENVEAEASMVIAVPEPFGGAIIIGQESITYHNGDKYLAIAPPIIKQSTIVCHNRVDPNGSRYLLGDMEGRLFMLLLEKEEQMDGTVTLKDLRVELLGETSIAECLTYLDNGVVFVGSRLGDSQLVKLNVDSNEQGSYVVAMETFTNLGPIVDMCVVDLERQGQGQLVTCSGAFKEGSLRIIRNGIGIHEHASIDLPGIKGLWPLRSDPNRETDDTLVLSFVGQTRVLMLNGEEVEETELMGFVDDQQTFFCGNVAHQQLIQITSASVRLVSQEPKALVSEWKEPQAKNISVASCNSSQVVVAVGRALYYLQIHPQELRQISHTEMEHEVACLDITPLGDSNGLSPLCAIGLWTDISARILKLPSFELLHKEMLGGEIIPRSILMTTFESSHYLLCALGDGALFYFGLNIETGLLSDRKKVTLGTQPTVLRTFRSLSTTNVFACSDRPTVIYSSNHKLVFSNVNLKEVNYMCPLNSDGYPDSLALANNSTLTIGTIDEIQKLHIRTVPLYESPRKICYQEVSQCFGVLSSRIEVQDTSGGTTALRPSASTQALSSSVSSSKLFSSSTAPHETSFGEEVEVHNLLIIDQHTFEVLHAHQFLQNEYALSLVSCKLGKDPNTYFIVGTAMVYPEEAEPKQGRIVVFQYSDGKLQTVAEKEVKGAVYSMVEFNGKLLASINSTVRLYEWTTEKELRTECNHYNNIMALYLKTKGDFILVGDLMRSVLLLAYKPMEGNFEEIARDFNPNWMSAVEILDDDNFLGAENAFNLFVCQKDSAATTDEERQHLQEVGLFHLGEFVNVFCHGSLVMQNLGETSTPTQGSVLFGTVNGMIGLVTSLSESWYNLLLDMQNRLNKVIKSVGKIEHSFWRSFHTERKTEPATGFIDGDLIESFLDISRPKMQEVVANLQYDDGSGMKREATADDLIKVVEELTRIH

human Cereblon WT GST-tagged protein, sequence (Q96SW2 whole entry): as the sequence (Q96SW2 whole entry) above
IKZF3 protein, sequence (Q9UKT9 whole entry): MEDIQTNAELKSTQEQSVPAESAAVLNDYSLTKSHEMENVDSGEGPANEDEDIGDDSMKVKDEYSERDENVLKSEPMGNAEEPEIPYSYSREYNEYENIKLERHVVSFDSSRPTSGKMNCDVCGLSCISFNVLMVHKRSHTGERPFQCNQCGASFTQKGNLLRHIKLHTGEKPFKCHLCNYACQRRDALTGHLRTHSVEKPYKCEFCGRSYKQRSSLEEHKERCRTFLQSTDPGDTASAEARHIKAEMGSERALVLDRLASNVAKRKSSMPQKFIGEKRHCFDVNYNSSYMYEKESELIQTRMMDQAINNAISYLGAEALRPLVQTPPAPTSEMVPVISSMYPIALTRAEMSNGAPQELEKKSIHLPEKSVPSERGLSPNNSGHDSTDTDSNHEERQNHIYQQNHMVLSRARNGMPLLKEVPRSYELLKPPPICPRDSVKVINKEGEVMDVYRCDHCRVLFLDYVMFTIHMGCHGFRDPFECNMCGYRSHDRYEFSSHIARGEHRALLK
IKZF3 protein, sequence (Q96SW2 whole entry): as the sequence (Q96SW2 whole entry) above
IKZF3 protein, sequence (Q16531 whole entry partner): as the sequence (Q16531 whole entry partner) above
IKZF1 protein, sequence (Q13422 whole entry): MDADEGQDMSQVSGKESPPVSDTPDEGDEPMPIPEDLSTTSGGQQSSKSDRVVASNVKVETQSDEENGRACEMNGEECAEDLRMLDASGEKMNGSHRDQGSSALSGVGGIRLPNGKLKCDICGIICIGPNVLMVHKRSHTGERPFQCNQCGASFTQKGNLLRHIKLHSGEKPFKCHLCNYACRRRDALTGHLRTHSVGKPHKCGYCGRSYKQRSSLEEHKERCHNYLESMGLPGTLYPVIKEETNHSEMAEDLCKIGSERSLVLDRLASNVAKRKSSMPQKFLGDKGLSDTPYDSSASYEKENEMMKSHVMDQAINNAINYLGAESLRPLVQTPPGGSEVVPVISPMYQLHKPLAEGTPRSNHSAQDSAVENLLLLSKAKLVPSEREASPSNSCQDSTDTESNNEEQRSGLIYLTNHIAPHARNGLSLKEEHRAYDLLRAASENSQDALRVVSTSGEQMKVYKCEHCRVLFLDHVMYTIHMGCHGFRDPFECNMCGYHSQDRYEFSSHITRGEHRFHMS
IKZF1 protein, sequence (Q96SW2 whole entry): as the sequence (Q96SW2 whole entry) above
IKZF1 protein, sequence (Q16531 whole entry partner): as the sequence (Q16531 whole entry partner) above

| Structure (SMILES) | pIC50 [1] | residual substrate protein level, IKZF1 (IKZF1 protein) | residual substrate protein level, IKZF3 (IKZF3 protein) | residual substrate protein level, GSPT1 (GSPT1 protein) |
| --- | --- | --- | --- | --- |
| CC1(C)CCC(C(=O)N2C3CC2CN(Cc2ccc4c(c2)CN(C2CCC(=O)NC2=O)C4=O)C3)=C(c2ccc(F)cc2)C1 (stereo not shown) [GT-05515, 3-(5-((6-(4′-fluoro-5,5-dimethyl-3,4,5,6-tetrahydro-[1,1′-biphenyl]-2-carbonyl)-3,6-diazabicyclo[3.1.1]heptan-3-yl)methyl)-1-oxoisoindolin-2-yl)piperidine-2,6-dione] | 6.00 | B (B represents a residual substrate protein level of >50%) | B (B represents a residual substrate protein level of >50%) | A (A represents a residual substrate protein level of <50%) |
| O=C1CCC(N2Cc3cc(CN4C5CC4CN(Cc4ccccc4-c4ccc(Cl)cc4)C5)ccc3C2=O)C(=O)N1 (stereo not shown) [GT-05607, 3-(5-((3-((4′-chloro-[1,1′-biphenyl]-2-yl)methyl)-3,6-diazabicyclo[3.1.1]heptan-6-yl)methyl)-1-oxoisoindolin-2-yl)piperidine-2,6-dione] | 5.94 and 6.06 | B (B represents a residual substrate protein level of >50%) | B (B represents a residual substrate protein level of >50%) | A (A represents a residual substrate protein level of <50%) |
| O=C1CCC(N2Cc3cc(C(=O)N4CC5CCC(C4)N5Cc4ccccc4-c4ccc(Cl)cc4)ccc3C2=O)C(=O)N1 (stereo not shown) [GT-05621, 3-(5-(8-((4′-chloro-[1,1′-biphenyl]-2-yl)methyl)-3,8-diazabicyclo[3.2.1]octane-3-carbonyl)-1-oxoisoindolin-2-yl)piperidine-2,6-dione] | 5.96 | B (B represents a residual substrate protein level of >50%) | B (B represents a residual substrate protein level of >50%) | A (A represents a residual substrate protein level of <50%) |
| O=C1CCC(N2Cc3cc(C(=O)N4CC5CCC4CN5Cc4ccccc4-c4ccc(Cl)cc4)ccc3C2=O)C(=O)N1 (stereo not shown) [GT-05622, 3-(5-(5-((4′-chloro-[1,1′-biphenyl]-2-yl)methyl)-2,5-diazabicyclo[2.2.2]octane-2-carbonyl)-1-oxoisoindolin-2-yl)piperidine-2,6-dione] | 6.04 | B (B represents a residual substrate protein level of >50%) | B (B represents a residual substrate protein level of >50%) | A (A represents a residual substrate protein level of <50%) |
| CC1(C)CCC(C(=O)N2CCC3(CC2)CN(C(=O)c2ccc4c(c2)CN(C2CCC(=O)NC2=O)C4=O)C3)=C(c2ccc(Cl)cc2)C1 (stereo not shown) [GT-05657, 3-(5-(7-(4′-chloro-5,5-dimethyl-3,4,5,6-tetrahydro-[1,1′-biphenyl]-2-carbonyl)-2,7-diazaspiro[3.5]nonane-2-carbonyl)-1-oxoisoindolin-2-yl)piperidine-2,6-dione] | 5.93 | B (B represents a residual substrate protein level of >50%) | B (B represents a residual substrate protein level of >50%) | B (B represents a residual substrate protein level of >50%) |

More lines, in order of rising pIC50 [1], values ahead:

| pIC50 [1] | Structure (SMILES) | residual substrate protein level, IKZF1 (IKZF1 protein) | residual substrate protein level, IKZF3 (IKZF3 protein) | residual substrate protein level, GSPT1 (GSPT1 protein) |
| --- | --- | --- | --- | --- |
| 6.13 | CC1(C)CCC(C(=O)N2CC3CN(Cc4ccc5c(c4)CN(C4CCC(=O)NC4=O)C5=O)CC3C2)=C(c2ccc(Cl)cc2)C1 (stereo not shown) [GT-05658, 3-(5-((5-(4′-chloro-5,5-dimethyl-3,4,5,6-tetrahydro-[1,1′-biphenyl]-2-carbonyl)hexahydropyrrolo[3,4-c]pyrrol-2(1H)-yl)methyl)-1-oxoisoindolin-2-yl)piperidine-2,6-dione] | B (B represents a residual substrate protein level of >50%) | A (A represents a residual substrate protein level of <50%) | B (B represents a residual substrate protein level of >50%) |
| 6.14 | O=C1CCC(N2Cc3cc(CN4CCN(Cc5ccccc5-c5ccc(F)cc5)CC4)cc(F)c3C2=O)C(=O)N1 (stereo not shown) [GT-05604, 3-(7-fluoro-5-((4-((4′-fluoro-[1,1′-biphenyl]-2-yl)methyl)piperazin-1-yl)methyl)-1-oxoisoindolin-2-yl)piperidine-2,6-dione] | B (B represents a residual substrate protein level of >50%) | B (B represents a residual substrate protein level of >50%) | A (A represents a residual substrate protein level of <50%) |
| 6.19 | O=C1CCC(N2Cc3cc(CN4CC5(CCN(Cc6ccccc6-c6ccc(Cl)cc6)CC5)C4)ccc3C2=O)C(=O)N1 (stereo not shown) [GT-05612, 3-(5-((7-((4′-chloro-[1,1′-biphenyl]-2-yl)methyl)-2,7-diazaspiro[3.5]nonan-2-yl)methyl)-1-oxoisoindolin-2-yl)piperidine-2,6-dione] | A (A represents a residual substrate protein level of <50%) | A (A represents a residual substrate protein level of <50%) | B (B represents a residual substrate protein level of >50%) |
| 6.23 | O=C1CCC(N2Cc3cc(CN4CC5CN(Cc6ccccc6-c6ccc(Cl)cc6)CC5C4)ccc3C2=O)C(=O)N1 (stereo not shown) [GT-05613, 3-(5-((5-((4′-chloro-[1,1′-biphenyl]-2-yl)methyl)hexahydropyrrolo[3,4-c]pyrrol-2(1H)-yl)methyl)-1-oxoisoindolin-2-yl)piperidine-2,6-dione] | B (B represents a residual substrate protein level of >50%) | A (A represents a residual substrate protein level of <50%) | B (B represents a residual substrate protein level of >50%) |
| 6.23 | O=C1CCC(N2Cc3cc(CN4CCCN(C(=O)c5ccccc5-c5ccc(Cl)cc5)CC4)ccc3C2=O)C(=O)N1 (stereo not shown) [GT-05644, 3-(5-((4-(4′-chloro-[1,1′-biphenyl]-2-carbonyl)-1,4-diazepan-1-yl)methyl)-1-oxoisoindolin-2-yl)piperidine-2,6-dione] | B (B represents a residual substrate protein level of >50%) | B (B represents a residual substrate protein level of >50%) | A (A represents a residual substrate protein level of <50%) |
